According to PubChem BioAssay (NCI):
Where “and” joins values, the source holds several entries; their conditions need not be identical. Equal entries are not always repeated.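 In this assay, cells in 96-well plates receive the compound at five concentrations for 48 hours. Endpoints are linearly interpolated between the surrounding concentrations. GI50 = concentration required for 50% inhibition of growth. TGI marks complete inhibition of growth.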

Assays:
Assay in all cases: growth of human tumour cells (NCI), 48 h
EKVX NSCLC = system: EKVX NSCLC
HOP-92 NSCLC = system: HOP-92 NSCLC
LOX IMVI melanoma = system: LOX IMVI melanoma
MDA-MB-435 = system: MDA-MB-435
NCI-H460 lung = system: NCI-H460 lung
NCI/ADR-RES ovarian = system: NCI/ADR-RES ovarian
OVCAR-8 ovarian = system: OVCAR-8 ovarian
SK-OV-3 ovarian = system: SK-OV-3 ovarian
SNB-19 CNS = system: SNB-19 CNS
UACC-257 melanoma = system: UACC-257 melanoma

Row | Compound | GI50 (EKVX NSCLC) | TGI (EKVX NSCLC) | GI50 (HOP-92 NSCLC) [µM] | GI50 (LOX IMVI melanoma) | GI50 (MDA-MB-435) [µM] | GI50 (NCI-H460 lung) [µM] | GI50 (NCI/ADR-RES ovarian) | GI50 (OVCAR-8 ovarian) [µM] | GI50 (SK-OV-3 ovarian) [µM] | GI50 (SNB-19 CNS) [µM] | TGI (SNB-19 CNS) | GI50 (UACC-257 melanoma) [µM] | TGI (UACC-257 melanoma) | TGI (HOP-92 NSCLC) [µM] | TGI (LOX IMVI melanoma) [µM] | TGI (MDA-MB-435) [µM] | TGI (NCI-H460 lung) [µM] | TGI (NCI/ADR-RES ovarian) [µM] | TGI (OVCAR-8 ovarian) [µM] | TGI (SK-OV-3 ovarian) [µM]
1 | CC(C)C[C@H](NC(=O)[C@@H](N)Cc1cccc2ccccc12)B(O)O | 1.23 µM and 0.167 µM | 5 µM and 3.13 µM | 0.0288 | 0.184 µM | 0.114 | 1.36 | 1.39 µM and 0.183 µM | 1.62 | 2 | 0.11 | 50 µM and > 100 µM | 0.315 | 1.12 µM and 0.114 µM |  |  |  |  |  |  | 
2 | Cc1nc2ccccc2c(/C=C/c2ccc(F)cc2)c1C(=O)/C=C/c1ccccc1 | 4.38 µM | 43.5 µM | 2.02 | 1.69 µM | 2.94 | 1.79 | 2.61 µM | 2.62 | 4.72 | 1.88 | 4.02 µM | 2.82 | 8.65 µM | 31.5 | 3.11 | 12.2 | 3.71 | 7.48 | 7.75 | > 100
3 | COC(=O)c1cc2c3cc(Cl)ccc3[nH]c2c2ncccc12 | > 100 µM | > 100 µM | > 100 | > 100 µM | > 100 | > 100 | > 100 µM | > 100 | > 100 | > 100 | > 100 µM | > 100 | > 100 µM | > 100 | > 100 | > 100 | > 100 | > 100 | > 100 | > 100
4 | Nc1ncnc2occ(-c3ccc(NC(=O)Nc4cccc(C(F)(F)F)c4)cc3)c12 | 4.46 µM | 14.5 µM | 3.43 | 2.57 µM | 2.22 | 3.46 | 4.51 µM | 2.85 | 4.91 | 7.69 | 21.3 µM | 4.24 | 8.86 µM | 10.1 | 12.1 | 6.48 | 9.3 | 16.2 | 8.26 | 17.9
5 | COc1cccc2c1C(=O)c1c(O)c3c(c(O)c1C2=O)C[C@@](O)(C(=O)CO)C[C@@H]3OC1CC2C(OCN2CN2COC3C(C)OC(O[C@H]4C[C@](O)(C(=O)CO)Cc5c(O)c6c(c(O)c54)C(=O)c4c(OC)cccc4C6=O)CC32)C(C)O1 (some centres undefined) | 0.0393 µM | > 1 µM | 0.00606 | 0.002 µM | 0.013 | 0.000207 | 0.0187 µM | 0.0113 | 0.00699 | 0.00292 | 0.0256 µM | 0.0015 | 0.0208 µM | > 0.293 | 0.0328 | 0.0391 | 0.0864 | 0.198 | > 1 | 0.0207
6 | NC(=O)c1c(NC(=O)c2ccc(C(F)(F)F)cc2Cl)sc2c1CCC(=O)C2 | 1.62 µM | 4.93 µM | 0.426 | 0.383 µM | 0.393 | 1.29 | 0.448 µM | 0.456 | 2.47 | 0.375 | 3.96 µM | 0.654 | 3.46 µM | 2.88 | 1.83 | 1.79 | 9.48 | 3.38 | 12.2 | 7.56
7 | O=C(N/N=C/c1coc2ccc(Cl)cc2c1=O)c1cc(O)c(O)c(O)c1 | 27.1 µM | > 100 µM | 31.9 | 22.5 µM | 27.2 | > 100 | 17.8 µM | 18.6 | > 100 | 72.8 | > 100 µM | 39.9 | > 100 µM | > 100 | 56.6 | 66.7 | > 100 | 50.2 | > 100 | > 100
8 | O=C1C2C3C=CC(C2C(=O)N1CN1CCOCC1)C1C2C(=O)N(CN4CCOCC4)C(=O)C2C31 (centres undefined) |  | > 100 µM |  |  |  |  |  |  |  |  | > 78.9 µM |  | > 71.5 µM | > 93.8 | > 60.9 | > 100 | > 57.5 | > 100 | > 69.2 | > 100
9 | CCOC(=O)c1ccc(N[C@@H]2c3cc4c(cc3C(c3cc(OC)c(O)c(OC)c3)[C@H]3C(=O)OCC32)OCO4)cc1 (some centres undefined) | 0.591 µM | 9.17 µM | 0.35 | 0.217 µM and 0.118 µM |  | 0.0385 |  | 0.479 | 0.37 | 0.261 | 22.2 µM |  | 25 µM |  | 1.61 | > 100 | 1.33 | 6.41 | 6.49 | 5.16
